Data: US9669104B2, “Nanocomplex containing amphipathic peptide useful for efficient transfection of biomolecules” (Council of Scientific and Industrial Research, priority 2012, dated 2017)
“Also recorded” adds a separate entry of the source.

Legend:
CHO-K1 cells [1] = test: Cellular uptake of small RNA (Siglo) by flow cytometry; format: cell-based, Chinese hamster; details: Siglo non-covalently complexed; for small RNA delivery: charge ratio 5; for uptake of the small RNA (fluorescence positive cells): charge ratio 5, CHO-K1, 4 h
Description: (§1) The uptake of the small RNA, which is noncovalently complexed with the peptides, was almost 100% in CHO-K1 cells at charge ratio 5 for Mgpe-9 and Mgpe-10. Siglo was used as a model small RNA. This RNA was used to prepare the nanocomplexes with the peptide at charge ratio 5.0. Chinese hamster ovary cells (CHO-K1) were maintained in Ham's F-12K media supplemented with 10% (v/v) Fetal bovine serum (Life Technologies, USA); at 37° C. and 5% CO2 in humidified incubator. Cells were grown in 24 well plate which was seeded 24 h before use. At a confluency of 70-80% the cells were treated with labelled nanocomplexes for 4 h at 37° C. After incubation, the media was removed and cells were washed twice with PBS supplemented with heparin (1 mg/ml). The cells were then treated with trypsin (0.25%) for 5-10 min and harvested in complete media, pelleted down, washed with PBS, resuspended in PBS having 1% BSA and then analyzed on FACS-Calibur™ (Becton Dickinson, USA) using CellQuest. Pro software. The labelled nanocomplexes were excited using 488 nm laser and detected with 530/30 nm (FL1) band pass filter. In each case total 10,000 events were acquired. Percentage of fluorescence positive cells was plotted as bars and their mean intensity was plotted as a line.
as §1, with “Siglo” for “The uptake of the small RNA, which is noncovalently complexed with the peptides, was almost 100% in CHO-K1 cells at charge ratio 5 for Mgpe-9 and Mgpe-10. Siglo”, “RNA” for “RNA.”, “plates” for “plate”, “CellQuest” for “CellQuest.”, “line. The uptake of the small RNA, which is noncovalently complexed with the peptides, was almost 100% in CHO-K1 cells at charge ratio 5 for Mgpe-9 and Mgpe-10. […] Nanocomplex containing invented peptide can carry biomolecules in the range of 20 bp to 7 kbp size.” for “line.”

[2] = Size and zeta potential of nanocomplexes by DLS; format: physicochemical; details: nanocomplexes with DNA at charge ratio 10, DNA 25 ng/μl; for Size (nm): deionized water, 25° C.
Description: The mean hydrodynamic diameter and zeta potential of nanocomplexes prepared at charge 10.0 at 25 ng/μl of DNA concentration in deionized water were measured by Zeta sizer Nano ZS (Malvern Instruments, UK) at a fixed angle of 173° at 25° C. Minimum of 3 readings were recorded for each sample with replicates. As presented in Table-2 all the peptides were able to make nanocomplexes with DNA. The size of nanocomplexes was ranging from 50 to 110 nm and Zeta potential was ranging from 30 to 60 mV.
The mean hydrodynamic diameter and zeta potential of nanocomplex (Table 2) prepared at charge 10 at 25 ng/μl of DNA concentration in deionized water were measured by Zeta sizer Nano ZS (Malvern Instruments, UK) at a fixed angle of 173° at 25° C. Minimum of 3 readings were recorded for each sample with replicates. All five invented peptides were able to Make monodisperse nanocomplex with sizes ranging from 50 nm to 110 nm with DNA.

A549 = test: Luciferase transfection efficiency in A549 cells; format: cell-based; details: A549, charge ratio 5
Description: (§2) The transfection efficiency in terms of reporter gene expression has been checked using luciferase reporter assay. A plasmid (pMIR-Report™ Luciferase) containing luciferase gene was complexed with the peptide and transfected to the cell. The nanocomplexes were made at different charge ratios and transfected in a wide range of cell lines. CHO-K1 cells were maintained in Ham's F-12K media and MCF-7 and A549 cells in low glucose DMEM supplemented with 10% (v/v) Fetal bovine serum (Life Technologies, USA); at 37° C. and 5% CO2 in humidified incubator. Cells were seeded 24 h before transfection in 24-well plates. […] Luciferase expression was measured in 50 μl of cell lysate supernatant using the luciferase assay substrate (Promega). Light emission was measured by integration over 1 Os in Orion microplate luminometer (Berthold Detection System, Germany). […]
(§3) CHO-K1 cells were maintained in Ham's F-12K media and MCF-7 and A549 cells in low glucose DMEM supplemented with 10% (v/v) Fetal bovine serum (Life Technologies, USA); at 37° C. and 5% CO2 in humidified incubator. […] Luciferase expression was measured in 50 μl of cell lysate supernatant using the luciferase assay substrate (Promega). Light emission was measured by integration over 10 s in Orion micro plate luminometer (Berthold Detection System, Germany). […]

CHO-K1 cells [3] = test: Transfection in presence of 10% serum; format: cell-based, Chinese hamster; details: CHO-K1, charge ratio 20
MCF-7 = test: Luciferase transfection efficiency in MCF-7 cells; format: cell-based; details: MCF-7, charge ratio 5
Description: as §2, §3

CHO-K1 cells [4] = test: Luciferase transfection efficiency in CHO-K1 cells; format: cell-based, Chinese hamster
Description: The transfection efficiency in terms of reporter gene expression has been checked using luciferase reporter assay. A plasmid (pMIR-Report™ Luciferase) containing luciferase gene was complexed with the peptide and transfected to the cell. The nanocomplexes were made at different charge ratios and transfected in a wide range of cell lines. CHO-K1 cells were maintained in Ham's F-12K media and MCF-7 and A549 cells in low glucose DMEM supplemented with 10% (v/v) Fetal bovine serum (Life Technologies, USA); at 37° C. and 5% CO2 in humidified incubator. Cells were seeded 24 h before transfection in 24-well plates. Nanocomplexes were prepared with final DNA concentration of 20 ng/μl and incubated for 1 h at room temperature. 100 μl of nanocomplex was added to cells at ˜70% confluency in serum-free media (OptiMEM, Invitrogen). After 5 h of incubation at 37° C. and 5% CO2 in humidified incubator, the media was aspirated; cells were washed with phosphate buffered saline (PBS, pH 7.4) and supplemented with 500 μl of complete growth medium. After 24 h, cells were washed with PBS and lysed with 100 μl of cell culture lysis buffer (1×CCLR, Promega). Luciferase expression was measured in 50 μl of cell lysate supernatant using the luciferase assay substrate (Promega). Light emission was measured by integration over 1 Os in Orion microplate luminometer (Berthold Detection System, Germany). Luciferase activity was normalized with total protein content of the cells estimated using BCA protein assay (Pierce).
CHO-K1 cells were maintained in Ham's F-12K media and MCF-7 and A549 cells in low glucose DMEM supplemented with 10% (v/v) Fetal bovine serum (Life Technologies, USA); at 37° C. and 5% CO2 in humidified incubator. Cells were seeded 24 h before transfection in 24-well plates. A plasmid (pMIR-Report™ Luciferase) containing luciferase gene was complexed with the peptide and transfected to the cell. The nanocomplexes were made at different charge ratios and transfected in a wide range of cell lines. Nanocomplexes were prepared with final DNA concentration of 20 ng/μl and incubated for 1 h at room temperature. 100 μl of nanocomplex was added to cells at 70% confluency in serum-free media (OptiMEM, Invitrogen). Cellfectin, Superfect and Lipofectamine2000 used as manufacturer protocol. In case of transfection in presence of serum, nanocomplexes were added in complete media. […] Luciferase expression was measured in 50 μl of cell lysate supernatant using the luciferase assay substrate (Promega). Light emission was measured by integration over 10 s in Orion micro plate luminometer (Berthold Detection System, Germany). […]

Sequence | small RNA delivery (CHO-K1 cells [1]) | uptake of the small RNA (fluorescence positive cells) (CHO-K1 cells [1]) [%] | PDI [2] | Zeta potential(mV) [2] [mV] | Size (nm) [2] [nm] | transfection efficiency (luciferase) (A549) | transfection efficiency in presence of serum (CHO-K1 cells [3]) | transfection efficiency (luciferase) (MCF-7) | transfection efficiency compared with Cellfectin, Superfect and Lipofectamine 2000 (CHO-K1 cells [4]; CHO-K1, charge ratio 5) | transfection efficiency (luciferase) (CHO-K1 cells [4]; CHO-K1, charge ratio 5, plasmid DNA non-covalently complexed) | transfection efficiency compared with Cellfectin and Superfect (CHO-K1 cells [4]; CHO-K1, charge ratio 5) | transfection efficiency compared with Cellfectin and Superfect (CHO-K1 cells [4]; CHO-K1, charge ratio 10)
CLLYWFRRRHRHHRRRHRRC [Mgpe-10, Mgpe-4 with a cysteine residue at each end] | found to show small RNA delivery | ~100 | 0.206 ± 0.004 | 57.6 ± 3.2 | 66.2 ± 0.7 |  |  |  |  |  |  | 
CRRLRHLRHHYRRRWHRFRC [Mgpe-9, Mgpe-3 with a cysteine residue at each end] | found to show small RNA delivery | ~100 | 0.169 ± 0.002 | 43.4 ± 0.1 | 75.8 ± 3.8 | more than 10^6 RLU/mg protein | up to 10^7 RLU/mg protein | more than 10^8 RLU/mg protein | higher or equal transfection efficiency; also recorded: highest transfection efficiency | more than 10^8 RLU/mg protein |  | 
LLYWFRRRHRHHRRRHRR [Mgpe-4, primary amphipathic peptide by rearrangement of the amino acids of Mgpe-3] |  |  | 0.155 ± 0.010 | 25.4 ± 0.2 | 62.8 ± 7.0 |  |  |  |  |  | higher or equal transfection efficiency | 
RRLRHLRHHYRRRWHRFR [Mgpe-3] |  |  | 0.152 ± 0.014 | 33.5 ± 5.9 | 63.2 ± 4.5 |  |  |  |  |  |  | higher or equal transfection efficiency
SRLSHLRHHYSKKWHRFR (listed as Homo sapiens) [Mgpe-1, 18 mer amphipathic peptide derived from Human Protein phosphatase 1E; tested as nanocomplex with plasmid DNA] |  |  | 0.151 ± 0.031 | 36.5 ± 0.8 | 80.1 ± 7.3 |  |  |  |  |  |  | 
